Legend:
[1] = system: S1P- or VEGF-induced growth of vascularized tissue around the chamber; test: Antiangiogenic activity, subcutaneous porous chamber (S1P or VEGF) in mice; type: in vivo; settings: once a day for 4 days; Compound A orally 0.3, 3, 30 or 50 mg/kg; Compound C enantiomers i.v. 2.5 mg/kg
Protocol: Porous chambers containing (I) sphingosine-1-phosphate (5 μM/chamber) or (ii) human VEGF (1 μg/chamber) in 0.5 ml of 0.8% w/v agar (containing heparin, 20 U/ml) are implanted subcutaneously in the flank of mice. S1P or VEGF induces the growth of vascularized tissue around the chamber. This response is dose-dependent and can be quantified by measuring the weight and blood content of the tissue. Mice are treated once a day (i) orally with Compound A (0.3, 3, 30 or 50 mg/kg) or (ii) intravenously with the R enantiomer of Compound C (2.5 mg/kg) or (iii) intravenously with the S enantiomer of Compound C (2.5 mg/kg) or (iv) orally or intravenously with vehicle (5% glucose, 10 ml/kg), starting 4-6 hours before implantation of the chambers and continuing for 4 days. The animals are sacrificed for measurement of the vascularized tissues 24 h after the last dose. The weight and blood content of the vascularized tissues around the chamber is determined. Animals treated with Compound A or with the R or S enantiomer of Compound C show reduced weight and/or blood content of the vascularized tissues compared to animals treated with vehicle alone.

[2] = system: HUVEC; test: In vitro angiogenesis (tube formation) assay on Matrigel; type: cell-based, human
Protocol: (§1) Human umbilical vein endothelial cells (HUVEC) are cultured at 37° C. and 5% CO2 in medium M199 supplemented with 20% SCS (HyClone, Logan, Utah), 1 U/ml heparin, 50 μg/ml ECGS, 2 mM glutamine, 100 U/ml penicillin and 0.1 mg/ml streptomycin. Cells are used for experiments up to passage number 5. Short-starved HUVEC are obtained by starving with 1% SCS-containing M199 for 5 h. Recombinant human VEGF165 is obtained from PromoCell (Heidelberg, Germany). Phospho-specific ERK½, p3B kinase polyclonal antibodies, nonphospho ERK½ antibodies and LumiGLO chemiluminescent reagent are from New England BioLabs (Beverly, Mass.), polyclonal IKB antibodies from Santa Cruz Biotechnology (Santa Cruz, Calif.). Peroxidase-conjugated donkey anti-rabbit immunoglobulin G (IgG) and sheep anti-mouse IgG are purchased from Amersham LIFE SCIENCE (Amersham Place, England). lmmobilon-P transfer membranes are products of Millipore (Bedford, Mass.). S is obtained from Sigma Chemical Co.; S1P is from Biomol. Compound A-phosphate stock solution is prepared by the following protocol. Compound A-phosphate is dissolved in methanol tracing with concentrated HCl (0.5 mg Compound A-phosphate in 500 μl of methanol plus 2 μl of HCl). Solvent from the resulting solution is evaporated under vacuum and the residue obtained is redissolved (variant 1) in 0.1% of defatted BSA solution in sterile deionized water (500 μl) or (variant 2) in 0.5% Triton X-100 in deionized water. The resulting stock solutions (2.5 mM) are sonicated and stored at 4° C.
Morphogenesis of endothelial cells into capillary-like structures on Growth Factor Reduced Matrigel Matrix (BD Bioscience) is performed according to the manufacture procedure. Briefly, HUVEC are trypsinized, resuspended in serum-free Ml 99 medium containing soybean trypsin inhibitor (1 mg/ml, Sigma). After centrifugation cells are resuspended in serum-free medium at a density 0.5×10^5 cells/ml, and cell suspension is seeded in 96-well cell culture plates (Costar, Corning Incorporated) precoated with 50 μl of Matrigel in the absence or presence of various stimuli: VEGF at 1.5 nM, S1P at 0.1-2 μM, S at 0.5-2 μM, Compound A at 0.5-2 μM, and Compound A-phosphate at 0.1-2 μM. Eight hours later, cells on Matrigel are fixed with 3% formaldehyde in PBS and kept at 4° C. Results are quantitated from images made with a Nikon Diaphot microscope equipped with a cooled CCD camera (Kappa GmbH, Gleichen, Germany) by direct counting of branching points on two microscopic fields from each well done in duplicates.
The effect of Compound A and Compound A-phosphate on morphogenic differentiation of endothelial cells is determined using an in vitro angiogenesis assay on Matrigel. Endothelial cell morphogenesis is a complex process that requires cell-extracellular matrix interactions, followed by matrix remodelling, stimulated migration, cell-cell interactions, and perivascular proteolysis. […] This may be interpreted as a possible involvement of EDG-1 (S1P1) receptor-mediated signaling events in Compound A-phosphate-stimulated bioresponses (see e.g. FIG. 3). […] Importantly, high concentrations of S and Compound A (2-5 μM) inhibited VEGF-triggered tube formation.

[3] = system: ERK½ MAP kinases; test: Western blot, activation of ERK½ MAP kinases in HUVEC; type: cell-based, human; settings: endothelial cells, 5 minute to 60 minute treatment
Protocol: as §1
After various treatments, the cells are washed twice with cold PBS, lysed in 100 μl of Laemmli buffer, scraped and heated for 5 min at 95° C. Total cell lysates are separated by SDS-PAGE and transferred to Immobilon-P membrane. The membrane is blocked for 30 minutes with PBS containing 0.1% Tween-20 and 3% skim milk and incubated for 1 hour at RT with a primary antibody diluted in blocking buffer. The membrane obtained is washed three times for 5 minutes with PBS containing 0.1% Tween-20 and incubated with peroxidase-conjugated secondary antibody for 1 hour at RT. After a washing step, the membrane is incubated for 1 minute with ECL reagent and exposed to film as required. For reprobing with another antibody, the membrane is washed twice in PBS, stripped for 30 min at 55° C. with stripping buffer (62.5 mM Tris-HCL, pH 6.8, 2% SDS, 100 mM 2-mercaptoethanol) and washed three times for 5 minutes with PBS at RT. The membrane is stored wet wrapped in SaranWrap at 4° C. after each immunodetection.
Signal transduction via MAP idnases plays a key role in a variety of endothelial cell functions. Treatment of HUVEC with Compound A-phosphate at 0.5 μM may result in transient activation of ERK½ with a peak of phosphorylation/activation at 10 minutes and returning to baseline by 20 minutes (see e.g. FIG. 5). No activation of p38 kinase and JNK½ by Compound A-phosphate is detectable in HUVEC. […] To estimate the possible role of inflammatory/NFκB-dependent program in Compound A-phosphatestimulated bioresponses of endothelial cells, the membranes are reprobed with anti-IκB antibodies. IκB levels are not affected by Compound A-phosphate treatment.

[4] = system: tissue factor; test: Clotting assay, tissue factor activity on HUVEC; type: cell-based, human
Protocol: as §1
Cells are seeded in 6-well plates at 80-90% confluency and grown overnight. Cells are scraped from the plates and analyzed for tissue factor activity according to the method as described in Clauss, M., J. Biol. Chem. 271,17629-17634 (1996), Mechtcheriakova, D., Blood 93,3811-3823 (1999). Briefly, after induction for 4 hours with VEGF (1.5 nM), TNF-α (100 U/ml), S (0.5-2 μM), S1P (0.5-2 μM), Compound A (0.5-2 μM), and Compound A-phosphate (0.5-2 μM), cells are washed twice and then scraped in 1 ml clotting buffer (12 mM sodium acetate, 7 mM diethylbarbitate and 130 mM sodium chloride; pH 7.4). 50 μl of resuspended cells are mixed with 50 μl of citrated plasma, and clotting times are determined after recalcfication with 50 μl of 20 mM CaCl2 solution at 37° C. TF-equivalents are determined by using a standard curve obtained from rabbit brain thromboplastin.
An important characteristic feature of both classical inflammatory stimulus TNF-α and the main angiogenic growth factor VEGF on endothellal cells is their potency to upregulate tissue factor. Compound A, Compound A-phosphate, S or S1P are tested whether they also do induce tissue factor on HUVEC. […] The data obtained together indicate that Compound A, Compound A-phosphate, S and S1P mechanistically work distinctly to anglogenic VEGF and inflammatory TNF-α.

[5] = Acute toxicity p.o. in rats
[6] = Acute toxicity p.o. in monkeys
[7] = system: mouse breast cancer cell line JygMC(A); test: In vitro antitumor activity: proliferation of synchronised mouse breast cancer cells; type: cell-based; settings: hydrochloride salt form, Coulter counter and SRB colorimetric assay
Protocol: A mouse breast cancer cell line originally isolated from mammary carcinomas is used, e.g. JygMC(A). The cell number is adjusted to 5×10^5 for plating in fresh medium before the procedure. Cells are incubated with fresh medium containing 2.5 mM of thymidine without FCS for 12 h and then washed twice with PBS, followed by addition of fresh medium with 10% FCS and additionally incubated for another 12 h. Thereafter the cells are incubated with fresh medium containing 2.5 mM of thymidine without FCS for 12 h. To release the cells from the block, the cells are washed twice with PBS and replated in fresh medium with 10% FCS. After synchronisation the cells are incubated with or without various concentrations of a compound of formula I for 3, 6, 9, 12, 18 or 24 h. The cells are harvested after treatment with 0.2% EDTA, fixed with ice-cold 70% ethanol solution, hydrolyzed with 250 μg/ml of RNaseA (type 1-A: Sigma Chem. Co.) at 37° C. for 30 mn and stained with propidium iodide at […] for 20 mn. After the incubation period, the number of cells is determined both by counting cells in a Coulter counter and by the SRB colorimetric assay. Under these conditions an S1P agonist, e.g. Compound B in hydrochloride salt form, inhibits the proliferation of the tumor cells at concentrations ranging from 10^−12 to 10^−6 M.

[8] = system: human A375 melanoma cells; test: In vivo antitumor activity, A375 melanoma transplanted into BALB/c-nu/nu mice; settings: hydrochloride salt form, 0.5 to 5 mg/kg, 2 week treatment
Text: Antitumor activity is expressed as T/C% (mean increase in tumor volumes of treated animals divided by the mean increase of tumor volumes of control animals multiplied by 100).
Aliquots of cancer cells (1×10^7), e.g. human A375 melanoma cells, are transplanted into BALB/c-nu/nu mice. When the tumors have reached ca. 10×10 mm in size, the animals are assigned randomly to four subgroups and the treatment with a compound of formula I is initiated. Animals are sacrificed after 2 week treatment, at which times tumors and tissues are harvested and prepared for morphological and molecular analysis. The size of the tumors is determined with a caliper.

SMILES	weight and/or blood content of the vascularized tissues compared to vehicle [1]	effect on capillary-like network formation ([2]; 0.5-1 μM)	effect on VEGF-mediated remodelling ([2]; 0.5-1 μM, with VEGF)	effect on VEGF-triggered tube formation ([2]; high concentrations, 2-5 μM)	MAP kinase activation [3]	effect on TNF-α-induced tissue factor ([4]; TNF-α 100 U/ml)	effect on VEGF-induced tissue factor ([4]; VEGF 1.5 nM)	tissue factor activity ([4]; compound alone or in combinations, 0.5-2 μM, 4 hours)	acute LD60 [5]	acute LD60 [6]	concentrations at which the proliferation of the tumor cells is inhibited [7]	tumor growth vs saline control [8]
CCCCCCCCc1ccc(CCC(N)(CO)CO)cc1.Cl [Compound A, 2-amino-2-[2-(4-octylphenyl)ethyl]propane-1 ,3-diol]	reduced	weak, in comparison to Compound A-phosphate, but consistent enhancing effect	does not attenuate	inhibited	Neither Compound A nor S are able to induce MAP kinase activation	not TNF-α-induced	slightly enhance	none of these compounds alone or in combinations may elevate tissue factor activity	> 10 mg/kg	> 10 mg/kg	–	–
NC(CO)(CO)CCc1ccc(C(=O)CCCCc2ccccc2)cc1 [Compound B, 2-amino-2-{2-[4-(1-oxo-5-phenylpentyl)phenyl]ethyl}propane-1,3-diol]	–	–	–	–	–	–	–	–	–	–	10^−12 to 10^−6 M	slows tumor growth
CCCCCCCOc1ccc(CCC(C)(N)CO)cc1 (stereo not drawn) [R enantiomer of Compound C, 2-amino-4-(4heptyloxyphenyl)-2-methyl-butanol]	reduced	–	–	–	–	–	–	–	–	–	–	–

Source: US20050215531A1, “Use of edg receptor binding agents in cancer” (priority 2002, published 2005)
